# Assay type: physicochemical
# Text: Referring to FIGS. 1A and B, differential scanning calorimetry thermographs compare the melting of (1A) lysine and (1B) a lysine-based drug delivery composition, according to this example. […] These observations, further confirmed with Raman spectroscopy and x-ray powder diffraction, are consistent with the nanosizing effect on melting point and thermal stability of crystals due to the increased surface to volume ratio.
structure (smiles),measurement,value
NCCCC[C@H](N)C(=O)O [lysine],onset decomposition temperature (thermal stability),about 257 °C

# Reference: patent publication US9468654B1, “Drug delivery compositions and methods” (WILKES UNIVERSITY, priority 2014, dated 2016)
